Test results from ChEMBL document CHEMBL5029175, “Discovery of MK-4688: an Efficient Inhibitor of the HDM2-p53 Protein-Protein Interaction” (J Med Chem, 2021).

Key:
[1] = Lipophilicity, logD of the compound at pH 7 by RP-HPLC analysis; type: physicochemical; details: buffer
[2] = test system: HCT-116; assay: cells; details: Homo sapiens, HCT-116, 72 h
[3] = Unbound clearance in rat; type: ADME; details: in vivo
[4] = Mean residence time in rat; type: ADME; details: in vivo
[5] = Unbound clearance in dog; type: ADME, Canis lupus familiaris; details: in vivo
[6] = Mean residence time in dog; type: ADME, Canis lupus familiaris; details: in vivo
[7] = Bioavailability in rat; type: ADME, organism-based; details: in vivo
[8] = Bioavailability in dog; type: ADME, organism-based, Canis lupus familiaris; details: in vivo
[9] = molecular target: T1, Tumour suppressor p53/oncoprotein Mdm2 (Homo sapiens, UniProt Q00987); assay: Inhibition of N-terminal thioredoxin-His6 tagged HDM2 (17 to 125 residues)/p53 protein-protein interaction (unknown origin) incubated for 2 hrs by TR-FRET assay
T1 sequence (P04637 whole entry, the tested form may be a part): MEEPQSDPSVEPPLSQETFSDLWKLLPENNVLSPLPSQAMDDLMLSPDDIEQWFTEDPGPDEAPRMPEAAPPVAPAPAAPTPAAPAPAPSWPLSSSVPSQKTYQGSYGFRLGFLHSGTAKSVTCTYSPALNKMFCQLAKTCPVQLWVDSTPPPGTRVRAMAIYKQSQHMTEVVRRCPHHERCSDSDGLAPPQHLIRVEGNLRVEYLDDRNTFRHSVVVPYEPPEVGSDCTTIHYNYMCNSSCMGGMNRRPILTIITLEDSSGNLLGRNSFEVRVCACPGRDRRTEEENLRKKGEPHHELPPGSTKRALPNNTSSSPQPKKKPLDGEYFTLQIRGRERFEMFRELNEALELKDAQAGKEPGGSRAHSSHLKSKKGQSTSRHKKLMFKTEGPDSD
T1 sequence (Q00987 whole entry, the tested form may be a part): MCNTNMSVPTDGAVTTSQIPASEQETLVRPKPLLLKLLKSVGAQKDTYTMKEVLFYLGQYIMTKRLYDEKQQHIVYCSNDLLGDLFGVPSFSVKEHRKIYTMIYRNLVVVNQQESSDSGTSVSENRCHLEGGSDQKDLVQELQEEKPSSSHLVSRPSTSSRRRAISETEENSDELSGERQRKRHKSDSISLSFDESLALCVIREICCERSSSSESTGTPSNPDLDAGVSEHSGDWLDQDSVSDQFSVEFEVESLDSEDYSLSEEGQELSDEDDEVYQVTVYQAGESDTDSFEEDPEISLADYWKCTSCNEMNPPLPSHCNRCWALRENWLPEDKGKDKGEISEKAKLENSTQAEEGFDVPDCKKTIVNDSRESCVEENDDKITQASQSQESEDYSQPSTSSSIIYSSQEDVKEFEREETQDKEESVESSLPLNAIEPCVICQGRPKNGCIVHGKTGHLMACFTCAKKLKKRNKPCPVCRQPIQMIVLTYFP

[10] = Selectivity index, ratio of IC50 for inhibition of HDM2/p53 interaction in human HCT-116 cells expressing p53/Bla to IC50 for inhibition of N-terminal thioredoxin-His6 tagged HDM2 (17 to 125 residues)/p53 protein-protein interaction (unknown origin); type: cell-based
[11] = molecular target: T1, Tumour suppressor p53/oncoprotein Mdm2; assay: Inhibition of HDM2/p53 interaction in human HCT-116 cells expressing p53RE/Bla incubated for 16 hrs by beta-lactamase reporter gene assay; type: cell-based

COCC(c1ccccc1)c1nc2cc(-c3noc(=O)[nH]3)nc(-c3cncc(Cl)c3)c2n1C[C@H]1CC[C@H](C)CC1 (mixture of isomers)
logD [1]: 2.62 | IC50 [2]: 0.451 µM

C[C@H]1CC[C@H](Cn2c(N3CCC[C@H]3CF)nc3cc(-c4noc(=O)[nH]4)nc(-c4cncc(Cl)c4)c32)CC1
CL free [3]: 3244 mL/min/kg | MRT [4]: 0.25 h | logD [1]: 2.42 | IC50 [2]: 0.169 µM | CL free [5]: 920 mL/min/kg | MRT [6]: 1.5 h | bioavailability [7]: 7% | bioavailability [8]: 37%

CC(C)c1ccnc(-c2nc3nc(C(=O)O)nc(N[C@H](C)C4CCC4)c3n2Cc2ccc(C(F)(F)F)s2)c1
logD [1]: 2.67

C[C@@H](Nc1nc(C(=O)O)nc2nc(NC3CCCCC3)n(Cc3ccc(C(F)(F)F)cc3)c12)C1CCC1
logD [1]: 2.62

CCO[C@@H](c1nc2cc(-c3noc(=O)[nH]3)nc(-c3cncc(Cl)c3)c2n1[C@H](C)[C@H]1CC[C@H](C)CC1)C1CC1
CL free [3]: 2060 mL/min/kg | MRT [4]: 0.5 h | logD [1]: 2.75 | IC50 [2]: 0.031 µM | CL free [5]: 323 mL/min/kg | MRT [6]: 3.1 h | bioavailability [7]: 54% | bioavailability [8]: 93%

C[C@@H](Nc1nc(C(=O)O)nc2nc(N3CCOC[C@H]3c3ccccc3)n(Cc3ccc(C(F)(F)F)cc3)c12)C1CCC1
IC50 [9]: 0.0018 µM | logD [1]: 2.32

C[C@@H](Nc1nc(-c2nc(=O)n(C)[nH]2)nc2nc(N3CCOC[C@H]3c3ccccc3)n(C[C@H]3CC[C@H](C)CC3)c12)C1CCC1
IC50 [9]: 0.0015 µM | Ratio IC50 [10]: 135 | IC50 [11]: 0.203 µM

C[C@@H](Nc1nc(C(=O)O)nc2nc(N[C@@H](CO)c3ccccc3)n(Cc3ccc(C(F)(F)F)cc3)c12)C1CCC1
IC50 [9]: 0.0015 µM | logD [1]: 1.94

C[C@H]1CC[C@H](Cn2c(N3CCOC[C@H]3c3ccccc3)nc3cc(-c4noc(=O)[nH]4)nc(-c4cncc(Cl)c4)c32)CC1
CL free [3]: 20745 mL/min/kg | IC50 [9]: 0.00061 µM | MRT [4]: 0.4 h | IC50 [11]: 0.031 µM | logD [1]: 2.69 | IC50 [2]: 0.093 µM | CL free [5]: 1607 mL/min/kg | MRT [6]: 1.7 h | bioavailability [7]: 5% | bioavailability [8]: 39%

C[C@H]1CC[C@H](Cn2c(N3CCC[C@H]3C(F)(F)F)nc3cc(-c4noc(=O)[nH]4)nc(-c4cncc(Cl)c4)c32)CC1
CL free [3]: 11233 mL/min/kg | MRT [4]: 0.35 h | logD [1]: 2.85 | IC50 [2]: 0.099 µM | CL free [5]: 1500 mL/min/kg | MRT [6]: 2.5 h | bioavailability [7]: 11%

CC(C)c1ccnc(-c2nc3nc(C(=O)O)nc(N[C@H](C)C4CCC4)c3n2Cc2ccc(OC(F)(F)F)c(F)c2)c1
logD [1]: 2.84

C[C@H]1CC[C@H](Cn2c(N3CCOC[C@H]3c3ccccc3)nc3nc(-c4noc(=O)[nH]4)nc(-c4ccccc4)c32)CC1
IC50 [11]: 0.632 µM | logD [1]: 2.72 | IC50 [2]: 6.37 µM

CC(C)c1cccc(-c2nc3nc(C(=O)O)nc(N[C@H](C)C4CCC4)c3n2Cc2ccc(C(F)(F)F)cc2)c1
IC50 [9]: 0.015 µM | logD [1]: 2.86

C[C@@H](Nc1nc(C(=O)O)nc2nc(-c3ccc4sccc4c3)n(Cc3ccc(Cl)cc3)c12)C1CC1
logD [1]: 2.2

C[C@@H](Nc1nc(-c2nnc[nH]2)nc2nc(N3CCOC[C@H]3c3ccccc3)n(C[C@H]3CC[C@H](C)CC3)c12)C1CCC1
IC50 [9]: 0.011 µM | Ratio IC50 [10]: 66 | IC50 [11]: 0.724 µM

Cc1cncc(-c2nc(-c3noc(=O)[nH]3)nc3nc(N4CCOC[C@H]4c4ccccc4)n(C[C@H]4CC[C@H](C)CC4)c23)c1
IC50 [11]: 3.67 µM | logD [1]: 2.17 | IC50 [2]: 7.8 µM

C[C@@H](Nc1nc(C(=O)O)nc2nc(N3CCOC[C@@H]3c3ccccc3)n(Cc3ccc(C(F)(F)F)cc3)c12)C1CCC1
logD [1]: 2.34

CC(C)c1ccnc(-c2nc3nc(C(=O)O)nc(N[C@H](C)C4CCC4)c3n2C[C@H]2CC[C@@H](C)CC2)c1
IC50 [9]: 0.348 µM | logD [1]: 2.7

CC(C)c1ccnc(-c2nc3nc(C(=O)O)nc(N[C@H](C)C4CCC4)c3n2C[C@H]2CC[C@H](C)CC2)c1 (mixture of isomers)
IC50 [9]: 0.0022 µM | logD [1]: 2.94

COCC(C)c1nc2cc(-c3noc(=O)[nH]3)nc(-c3cncc(Cl)c3)c2n1C[C@H]1CC[C@H](C)CC1 (stereo partly drawn)
logD [1]: 2.03 | IC50 [2]: 1.11 µM | CL free [5]: 171 mL/min/kg | MRT [6]: 1.2 h

Cc1cccc(-c2nc3nc(C(=O)O)nc(NCC4CC4)c3n2CC2CCCCC2)c1
IC50 [9]: 8.4 µM | logD [1]: 3.7

COCC(C)c1nc2cc(-c3noc(=O)[nH]3)nc(-c3cncc(Cl)c3)c2n1[C@H](C)[C@H]1CC[C@H](C)CC1 (stereo partly drawn)
CL free [3]: 1150 mL/min/kg | MRT [4]: 0.4 h | logD [1]: 2.59 | IC50 [2]: 0.222 µM | CL free [5]: 59 mL/min/kg | MRT [6]: 3.8 h | bioavailability [7]: 46% | bioavailability [8]: 54%

C[C@@H]1COC[C@@H](C)N1c1nc2cc(-c3noc(=O)[nH]3)nc(-c3cncc(Cl)c3)c2n1C[C@H]1CC[C@H](C)CC1
CL free [3]: 2166 mL/min/kg | MRT [4]: 0.3 h | logD [1]: 2.32 | IC50 [2]: 0.248 µM | CL free [5]: 131 mL/min/kg | MRT [6]: 3.9 h | bioavailability [7]: 9%

C[C@@H](Nc1nc(-c2n[nH]c(=O)n2C)nc2nc(N3CCOC[C@H]3c3ccccc3)n(C[C@H]3CC[C@H](C)CC3)c12)C1CCC1
IC50 [9]: 0.015 µM | Ratio IC50 [10]: 66 | IC50 [11]: 0.99 µM

CCOC(c1nc2cc(-c3noc(=O)[nH]3)nc(-c3cncc(Cl)c3)c2n1C[C@H]1CC[C@H](C)CC1)C1CC1 (stereo partly drawn)
logD [1]: 2.34 | IC50 [2]: 0.466 µM | CL free [5]: 206 mL/min/kg | MRT [6]: 1.6 h

C[C@H]1CC[C@H](Cn2c(N3CCOC[C@H]3c3ccccc3)nc3nc(-c4noc(=O)[nH]4)nc(-c4cccc(Cl)c4)c32)CC1
IC50 [9]: 0.0013 µM | IC50 [11]: 0.113 µM | logD [1]: 3.15 | IC50 [2]: 0.723 µM

C[C@@H](Nc1nc(CO)nc2nc(N3CCOC[C@H]3c3ccccc3)n(C[C@H]3CC[C@H](C)CC3)c12)C1CCC1
Ratio IC50 [10]: 52 | IC50 [11]: 4.1 µM

C[C@@H](Nc1nc(C(=O)O)nc2nc(N3CCOC[C@H]3c3ccccc3)n(C[C@H]3CC[C@H](C)CC3)c12)C1CCC1
Ratio IC50 [10]: 5500 | IC50 [11]: 1.1 µM

CC(C)c1ccnc(-c2nc3nc(C(=O)O)nc(N[C@H](C)C4CCC4)c3n2Cc2ccc(OC(F)(F)F)cc2)c1
IC50 [9]: 0.012 µM | logD [1]: 2.81

C[C@H]1CC[C@H](Cn2c(N3CCOC[C@H]3c3ccccc3)nc3nc(-c4noc(=O)[nH]4)nc(-c4cncc(Cl)c4)c32)CC1
IC50 [11]: 0.401 µM | logD [1]: 2.55 | IC50 [2]: 1.97 µM

CC(C)c1ccnc(-c2nc3nc(C(=O)O)nc(N[C@H](C)C4CCC4)c3n2Cc2ccc(C(F)(F)F)cc2)c1
IC50 [9]: 0.004 µM | logD [1]: 2.66

C[C@@H](Nc1nc(-c2n[nH]c(=O)o2)nc2nc(N3CCOC[C@H]3c3ccccc3)n(C[C@H]3CC[C@H](C)CC3)c12)C1CCC1
IC50 [9]: 0.002 µM | Ratio IC50 [10]: 70 | IC50 [11]: 0.14 µM
